Data on 5 compounds can be found in US11147884B2, “Inhibitors of NHE-mediated antiport” (Ardelyx, Inc., priority 2017, dated 2021).

Experiment [1] relates to human ileum monolayer culture. In words: Transepithelial electrical resistance (TEER) in human ileum organoid monolayer cultures. Format: cell-based. The settings on record: for TEER compared with control: 3 μM, vs DMSO (FIG. 1D). How it is done: Each human ileum monolayer culture well was washed twice with fresh SBM on the apical side on day 6 before compound dosing. All compound stocks were 10 mM dissolved in DMSO. Each compound stock was individually mixed with fresh SBM to reach final compound concentration and dosed only on the apical side of the monolayer (total volume 200 μl). DMSO at the equivalent concentration was used as the vehicle control. Duplicate wells were dosed for each compound. Transepithelial electrical resistance (TEER) was used as a quantitative technique to measure of tight junction permeability. TEER values were recorded using a volt/ohm meter (MERS00002, Millipore) before and after dosing for all wells. Each of the duplicate TEER values following treatment were corrected for the individual well baseline TEER. Baseline corrected TEER for each example compound was compared to the average of the DMSO wells and expressed as a percent TEER of vehicle control. Intracellular pH was measured in human ileum stem cells grown as monolayers on 96 well Transwell plates cells incubated with 10 μM of pH sensitive dye BCECF-AM (Life Technologies, cat# B1150) for 30 min at 37° C., 5% CO2 in Na-containing buffer (120 mM NaCl, 10 mM HEPES, 10 mM glucose, 5 mM KCl, 2 mM CaCl2, 1 mM MgCl2, pH 7.4). After 30 min the dye was aspirated and cells were washed twice with Na-containing buffer.
Fluorescent readings were acquired every 5 minutes for a period of 30 minutes on a Flexstation microplate reader at dual excitation wavelengths of 495 nm and 439 nm and emission wavelength of 538 nm (Molecular Devices). The fluorescent ratio for pH indication was calculated from ratio of the two excitation wavelengths (495/439 nm).

Experiment [2] deals with human ileum stem cells grown as monolayers. In words: Intracellular pH (BCECF-AM) in human ileum monolayers. Format: cell-based. The settings on record: human ileum monolayer.
The next experiment relates to mice. In words: Gastrointestinal transit (Evans Blue dye front) in opioid induced constipation model. It is filed as in vivo. Conditions: oral vehicle, subcutaneous loperamide (0.3 to 6 mg/kg); 30-minute period; vehicle/vehicle approximately 70%. How it is done: Gastrointestinal transit is measured in mice treated with the peripherally acting μ-opioid agonist loperamide to assess the ability of selected example compounds to restore gastrointestinal motility in a model of opioid induced constipation. Approximately eight-week old, female, CD 1 rats are purchased from Envigo (Livermore, Calif.), are housed 4 per cage and acclimated for at least 48 hours before study initiation. Animals are fed standard laboratory rodent chow Harlan Teklad Global 2018 (Maddison, Wis.). […] 30 minutes later, animals are euthanized by carbon dioxide inhalation, and the length from the pylorus to cecum (whole length of the small intestine) and the length from the pylorus to the Evans Blue dye front are measured and recorded. For an individual animal, the length travelled by the Evans Blue dye front is divided by the length of the whole small intestine, measured from the pylorus to the cecum, and multiplied by 100, to provide the distance of the small intestine travelled by the dye as a percentage. […] The effect of example compounds on GIT motility in the presence of loperamide is calculated as the ability to restore vehicle/vehicle transit distance from the vehicle/loperamide transit, expressed as a percentage.

For a further experiment, the target named is T1, NHE3 (Homo sapiens, UniProt P48764).
T1 construct: the increase in NHE3 expression after differentiation; endogenous in cells; host or cells: enterocytes (differentiated human ileum organoid monolayer cultures)
T1 sequence (P48764 26-834): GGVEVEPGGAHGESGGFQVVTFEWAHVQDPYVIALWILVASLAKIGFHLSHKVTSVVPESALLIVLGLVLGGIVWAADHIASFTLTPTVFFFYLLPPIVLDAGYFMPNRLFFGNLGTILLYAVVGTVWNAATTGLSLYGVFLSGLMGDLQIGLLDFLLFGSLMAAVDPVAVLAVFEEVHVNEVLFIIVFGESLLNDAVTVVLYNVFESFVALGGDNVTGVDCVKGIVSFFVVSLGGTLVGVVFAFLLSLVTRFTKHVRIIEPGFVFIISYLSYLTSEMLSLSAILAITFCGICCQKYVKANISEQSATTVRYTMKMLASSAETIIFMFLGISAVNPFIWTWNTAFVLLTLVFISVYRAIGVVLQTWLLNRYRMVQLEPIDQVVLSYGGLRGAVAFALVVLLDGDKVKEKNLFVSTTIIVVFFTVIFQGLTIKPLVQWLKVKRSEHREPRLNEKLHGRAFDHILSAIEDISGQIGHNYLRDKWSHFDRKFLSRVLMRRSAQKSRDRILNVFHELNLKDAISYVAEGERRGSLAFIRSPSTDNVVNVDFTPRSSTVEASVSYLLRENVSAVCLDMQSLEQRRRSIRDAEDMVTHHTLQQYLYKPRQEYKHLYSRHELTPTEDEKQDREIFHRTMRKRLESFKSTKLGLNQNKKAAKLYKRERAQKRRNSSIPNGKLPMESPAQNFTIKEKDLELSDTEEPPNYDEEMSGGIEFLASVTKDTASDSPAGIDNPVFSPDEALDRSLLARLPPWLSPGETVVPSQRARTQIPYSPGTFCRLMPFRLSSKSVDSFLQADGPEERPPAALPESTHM
The experiment in a line: NHE3 activity in enterocytes by intracellular pH recovery following acid loading. Format: cell-based.

Method for NHE3: Known NHE3 inhibitor Tenapanor, as well as non NHE3 inhibitors nigericin, BAM15, FCCP, or DMSO control, were diluted into Na-containing buffer and added to the apical compartment of the Transwell. Fluorescent readings were acquired every 5 minutes for a period of 30 minutes on a Flexstation microplate reader at dual excitation wavelengths of 495 nm and 439 nm and emission wavelength of 538 nm (Molecular Devices). The fluorescent ratio for pH indication was calculated from ratio of the two excitation wavelengths (495/439 nm).

On to FCCP, for which the “TEER compared with control” value in experiment [1] is “increased TEER compared with control”. In experiment [2] (3 μM, vs DMSO (FIG. 1C)), the “intracellular pH compared with control” value was “decrease intracellular pH”. As for `CN(C)C(=O)C(CCN1CCC(O)(c2ccc(Cl)cc2)CC1)(c1ccccc1)c1ccccc1` [loperamide], the “length of the small intestine travelled by Evans Blue dye front” value in the experiment on mice is on record as approximately 25%. Regarding `CN1Cc2c(Cl)cc(Cl)cc2[C@H](c2cccc(S(=O)(=O)NCCOCCOCCNC(=O)NCCCCNC(=O)NCCOCCOCCNS(=O)(=O)c3cccc([C@@H]4CN(C)Cc5c(Cl)cc(Cl)cc54)c3)c2)C1` [tenapanor], in experiment [1] (apical dosing, vs DMSO (FIG. 1B)), the “TEER relative to control” value is “increase in TEER relative to control”. For `Fc1ccccc1Nc1nc2nonc2nc1Nc1ccccc1F` [BAM15], in experiment [1], the “TEER compared with control” value was “increased TEER compared with control”. For the same compound, in experiment [2] (3 μM, vs DMSO (FIG. 1C)), the “intracellular pH compared with control” value is on record as “decrease intracellular pH”. In addition, at NHE3, the “inhibition of NHE3 activity in enterocytes” value is recorded as “neither nigericin, BAM15 nor FCCP inhibited NHE3 activity”. With `CO[C@@H]1C[C@@H](C[C@H]2CC[C@H](C)[C@H]([C@@H](C)C(=O)O)O2)O[C@]2(O[C@](C)([C@H]3CC[C@@](C)([C@@H]4O[C@@H]([C@H]5O[C@@](O)(CO)[C@H](C)C[C@@H]5C)C[C@@H]4C)O3)C[C@H]2C)[C@@H]1C` [nigericin], in experiment [2] (apical dosing, vs DMSO (FIG. 1A)), the “intracellular pH compared with control” value is on record as “reduced intracellular pH compared with control”. Further, the “inhibition of NHE3 activity in enterocytes” value on NHE3 is recorded as “neither nigericin, BAM15 nor FCCP inhibited NHE3 activity”.
